Activity data for one compound are collected here from ChEMBL document CHEMBL4765275, “Discovery of novel tertiary amide derivatives as NEDDylation pathway activators to inhibit the tumor progression in vitro and in vivo” (Eur J Med Chem, 2020).

Active and inactive are the calls of the source. No cut-off for these calls is given here.

For assay [1], the system named is MGC-803. Briefly: Induction of apoptosis in human MGC-803 cells assessed as early apoptotic cells at 150 nmol/L measured after 48 hrs by Annexin V-FITC/propidium iodide staining based flow cytometry (reference value: 2.2%). Format: functional.
For assay [2], the system named is MGC-803. Briefly: Induction of apoptosis in human MGC-803 cells assessed as late apoptotic cells at 150 nmol/L measured after 48 hrs by Annexin V-FITC/propidium iodide staining based flow cytometry (reference value: 5.6%). Format: functional. In general terms: Flow cytometry measures light scatter and fluorescence of single cells or particles in a stream.
Assay [3] concerns the target T1, NEDD8-activating enzyme E1 regulatory subunit (Homo sapiens) (UniProt Q13564).
T1 sequence (whole entry): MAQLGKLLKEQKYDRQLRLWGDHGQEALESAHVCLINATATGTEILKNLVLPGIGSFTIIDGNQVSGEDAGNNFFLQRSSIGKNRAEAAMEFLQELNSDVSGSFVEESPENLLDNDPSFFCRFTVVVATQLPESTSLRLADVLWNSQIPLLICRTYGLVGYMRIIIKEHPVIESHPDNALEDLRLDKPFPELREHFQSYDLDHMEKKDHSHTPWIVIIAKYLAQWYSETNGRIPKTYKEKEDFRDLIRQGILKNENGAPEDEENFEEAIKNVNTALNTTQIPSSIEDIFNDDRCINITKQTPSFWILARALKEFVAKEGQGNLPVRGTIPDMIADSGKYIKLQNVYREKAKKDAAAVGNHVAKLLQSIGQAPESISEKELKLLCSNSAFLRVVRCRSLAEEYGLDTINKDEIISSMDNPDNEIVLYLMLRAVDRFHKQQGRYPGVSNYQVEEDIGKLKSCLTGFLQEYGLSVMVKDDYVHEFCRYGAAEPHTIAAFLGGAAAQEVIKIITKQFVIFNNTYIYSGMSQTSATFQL
Briefly: Activation of NAE1-mediated neddylation in human MGC-803 cells assessed as increase in Nedd8-[…] adduct formation at 50 to 500 nmol/L measured after 30 mins in presence of ATP by Western blot analysis. Format: cell-based. The note with it: filed as activator, dose 50-500 nmol/L.

For assay [4], the system named is MGC-803. The assay is described as follows: Antiproliferative activity against human MGC-803 cells assessed as cell viability measured after 48 hrs by MTT assay relative to control. Format: functional. Background: Tetrazolium assays rely on reduction of a dye to a coloured formazan, in cell work by metabolically active cells.
In assay [5] the test system is MGC-803. The assay is described as follows: Induction of apoptosis in human MGC-803 cells assessed as increase in activated caspase-8 expression at 50 to 150 nmol/L measured after 48 hrs by Western blot analysis. Particulars: dose 50-150 nmol/L. Format: functional, cell-based. (In general: In western blotting, separated proteins are transferred to a membrane and probed.)

Assay [6] concerns MGC-803. The assay is described as follows: Cell cycle arrest in human MGC-803 cells assessed as accumulation at S phase at 100 nmol/L measured after 48 hrs by propidium iodide staining based flow cytometry (reference value: 34.48%). Format: functional.

For `COc1ccc(CN(C(=O)Cc2cccs2)c2cc(OC)c(OC)c(OC)c2)cc1`, the Activity in the assay on MGC-803 [1] is given as 39.9%; in the assay with MGC-803 [2], 47.6%; in the assay with MGC-803 [4], 12.1%; in the assay on MGC-803 [6] it was 21.52%. Moreover, the result (in assay [3]; in the assay with MGC-803 [5]) was Active.
